In one test the target is Plk1 (Homo sapiens (Human), UniProt P53350). Put plainly: Plk1 Cellular Assay - Mitotic Arrest Assay. The format is cell-based. To be noted: Hela cells, immunofluorescence microscopy, 24 hours post-treatment. As to the method: FIG. 2. […] Using immunofluorescence microscopy the cells were located by their DNA stain (Hoechst) and were then scored for phospho H3 positivity. Cells that are arrested in mitosis are phospho H3 positive.
Hela cells were plated at roughly 80% cell density on poly-lysine coated glass coverslips. After 24 hours the medium* was removed and fresh medium supplemented with test compounds was added. Twenty-four hours post-treatment the medium was removed, the coverslips were washed once with phosphate-buffered saline (PBS), pH 7.4 and the cells fixed for 10 minutes at room temperature using the following fixative solution: 100 mM K-Pipes, pH 6.8, 10 mM EGTA, 1 mM MgCl2, 0.2% Triton X-100, 3% formaldehyde. The coverslips were washed 3× with Tris-buffered saline solution (50 mM Tris-HCl pH 7.4, 150 mM NaCl) containing 0.1% Triton X-100 (TBST). The samples were blocked using 2% bovine serum albumin (BSA) in TBST. The samples were then incubated with a phosphorylation-specific antibody against histone 3 (phospho H3) serine-10 (Upstate, 1:500-1:1000) in blocking solution. Cells can also optionally be stained for tubulin as well using appropriate antibodies. After a 2-hr. incubation at room temperature (or 4° C. overnight), the samples were washed 3× with TBST. The samples were then incubated with an appropriate secondary antibody in blocking solution for 1-2 hrs at room temperature (or 4° C. overnight). […] The samples were washed 3× with TBST and mounted onto glass slides using Prolong Gold Antifade Reagent (Invitrogen). See FIGS. 2 and 3. *Hela/U2OS medium—Dulbecco's Modified Eagle's Medium (DMEM, Sigma), 10% fetal bovine serum, 1% penicillin/streptomycin

For the next test, the target named is Mps1 (TTK) (Homo sapiens (Human), UniProt P33981). Put plainly: Mps1 (TTK) Cellular Assay - Mitotic Escape Assay. The format is cell-based. The conditions noted are these: Hela cells arrested with thymidine then nocodazole (0.33 μM); compound 0.25-10 uM for 2 hrs. How it is done:
FIG. 1. […] Hela cells were arrested in mitosis using the following protocol. Cells were treated with thymidine (2.5 mM) for 24 hours. Cells were released into medium containing nocodazole (0.33 μM). After 16 hrs. cells were treated with I-10 a range of concentrations (0.25, 0.5, 1, 2, 5 and 10 uM) shown above for 2 hrs. Cells were harvested and the levels of cyclin B (a marker for mitosis) were determined by immunoblot. High cyclin B levels indicated mitotic cells, while low cyclin B levels indicate cells have exited nocodazole-induced mitotic arrest.
Hela (or U2OS cells) were plated at roughly 30-35% cell density. After 24 hours the medium* was removed and fresh medium supplemented with 2.5 mM thymidine was added to arrest cells at the G1/S transition. After 24 hours in thymidine block the medium was removed, the cells were washed 3× with PBS and replaced with medium supplemented with 330 nM nocodazole (Noc). The cells were incubated with nocodazole for 16-18 hours to produce a mitotic arrest. […] After 2 hours, the cells were harvested, lysed in RIPA buffer, and the levels of cyclin B or phosphorylated Histone 3 (Ser10) determined by western blotting. Alternatively, cells were treated on coverslips, fixed, and phosphorylated Histone 3 levels determined by immunofluorescence. […]

Molecules are shown by their SMILES.

Sequence of Plk1 (P53350 whole entry): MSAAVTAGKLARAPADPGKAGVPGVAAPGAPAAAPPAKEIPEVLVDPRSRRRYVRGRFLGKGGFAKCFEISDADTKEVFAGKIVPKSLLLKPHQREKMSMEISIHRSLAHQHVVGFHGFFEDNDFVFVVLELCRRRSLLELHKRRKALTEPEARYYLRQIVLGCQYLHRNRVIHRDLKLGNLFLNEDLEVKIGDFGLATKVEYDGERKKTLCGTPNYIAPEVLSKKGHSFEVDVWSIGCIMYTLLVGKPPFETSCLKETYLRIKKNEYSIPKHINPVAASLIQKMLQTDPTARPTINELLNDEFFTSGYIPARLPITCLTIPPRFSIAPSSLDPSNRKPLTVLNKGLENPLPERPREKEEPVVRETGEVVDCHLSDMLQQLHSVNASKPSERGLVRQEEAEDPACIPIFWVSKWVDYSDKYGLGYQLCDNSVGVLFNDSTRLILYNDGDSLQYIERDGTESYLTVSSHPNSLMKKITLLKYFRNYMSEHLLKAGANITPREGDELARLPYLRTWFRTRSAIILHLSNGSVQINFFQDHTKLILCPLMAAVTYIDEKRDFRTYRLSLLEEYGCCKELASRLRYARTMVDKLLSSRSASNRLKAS
Sequence of Mps1 (TTK) (P33981 whole entry): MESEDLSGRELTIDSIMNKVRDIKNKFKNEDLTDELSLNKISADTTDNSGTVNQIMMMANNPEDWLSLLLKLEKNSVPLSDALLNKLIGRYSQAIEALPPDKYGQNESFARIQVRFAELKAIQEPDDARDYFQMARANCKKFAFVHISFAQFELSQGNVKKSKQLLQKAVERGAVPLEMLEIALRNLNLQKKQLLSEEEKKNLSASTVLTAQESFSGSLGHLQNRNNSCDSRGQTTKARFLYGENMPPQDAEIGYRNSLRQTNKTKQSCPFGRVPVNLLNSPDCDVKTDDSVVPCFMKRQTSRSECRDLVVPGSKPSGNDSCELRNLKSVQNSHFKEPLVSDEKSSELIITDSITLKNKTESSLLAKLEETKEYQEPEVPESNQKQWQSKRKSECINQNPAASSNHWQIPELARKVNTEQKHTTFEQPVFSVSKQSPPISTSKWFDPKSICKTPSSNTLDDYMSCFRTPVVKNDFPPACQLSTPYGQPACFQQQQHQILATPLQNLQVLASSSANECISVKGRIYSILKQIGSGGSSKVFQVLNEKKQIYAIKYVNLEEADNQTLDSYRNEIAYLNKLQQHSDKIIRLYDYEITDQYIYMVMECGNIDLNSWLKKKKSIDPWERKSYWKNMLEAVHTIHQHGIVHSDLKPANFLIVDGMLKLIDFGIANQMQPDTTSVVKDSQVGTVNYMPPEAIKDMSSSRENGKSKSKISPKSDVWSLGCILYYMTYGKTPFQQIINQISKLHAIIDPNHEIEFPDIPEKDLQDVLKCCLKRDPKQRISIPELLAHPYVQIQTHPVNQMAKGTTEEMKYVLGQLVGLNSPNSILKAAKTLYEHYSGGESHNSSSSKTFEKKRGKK

Turning to `COc1cc(N2CCC(O)CC2)ccc1Nc1ncc2c(n1)N(C1CCCC1)CCC(=O)N2C` [Compound I-6], the “mitotic arrest (phospho H3 positivity)” value at Plk1 is on record as “do not”.
Take `COc1cc(C(=O)NC2CCN(C)CC2)ccc1Nc1ncc2c(n1)N(C1CCCC1)CC(C)C(=O)N2C` (stereo not drawn) [Compound I-5]: the “mitotic arrest (phospho H3 positivity)” value on Plk1 was “induce a strong mitotic arrest”.
`COc1cc(C(=O)NC2CCN(C)CC2)ccc1Nc1ncc2c(n1)N(C1CCCC1)C(C)CC(=O)N2C` (stereo not drawn) [Compound I-4]: the “mitotic arrest (phospho H3 positivity)” value on Plk1 is on record as “induce a strong mitotic arrest”.
The same measure, in the same setting: with `COc1cc(N(C)CCO)ccc1Nc1ncc2c(n1)N(C1CCCC1)CCC(=O)N2C` [Compound I-7] the entry was “do not”.
As for `CCOc1cc(N2CCC(O)CC2)ccc1Nc1ncc2c(n1)N(C1CCCC1)CCC(=O)N2C` [Compound I-10], the “escape from mitosis (cyclin B levels by immunoblot)” value at Mps1 (TTK) is on record as “induces escape from mitosis”.
`COc1cc(N(C)CCCO)ccc1Nc1ncc2c(n1)N(C1CCCC1)CCC(=O)N2C` [Compound I-8]: at Plk1, the “mitotic arrest (phospho H3 positivity)” value is on record as “do not”.

Source of the values: patent US9266890B2, “Pyrimido-diazepinone kinase scaffold compounds and methods of treating disorders” (Dana-Farber Cancer Institute, Inc., priority 2009, dated 2016).
